Measurements taken from publication PMC11019538, “Biophysics-Guided Lead Discovery of HBV Capsid Assembly Modifiers” (ACS Infectious Diseases, 2024).
Read-outs that look alike come from different tables or passages of the source.

Experiments:
Cp149 [1] = target: T1, Cp149 (Hepatitis B virus genotype D subtype adw, UniProt P03147); design: method as in PMID 31712213; conditions: read-out: previously reported dissociation constant (KD); cited from earlier work
T1 construct: The N-terminal domain of Cp (Cp149) is sufficient for forming regular capsids; made in house; host or cells: E. coli BL21(DE3)

Cp149 capsid assembly [2] = target: T2, Cp149 capsid assembly (Hepatitis B virus genotype D subtype adw, UniProt P03147); experiment: Transmission electron microscopy of assembled Cp149 products; assay type: biochemical; conditions: for effect on capsid morphology (TEM) / % abnormal capsids, Trial 1 / % abnormal capsids, Trial 2: 20 μM Cp149, 40 μM compound; for % abnormal capsids, Trial 1 / % abnormal capsids, Trial 2: 500 mM NaCl; for % abnormal capsids, Average: average of two trials
T2 construct: The N-terminal domain of Cp (Cp149) is sufficient for forming regular capsids; made in house; host or cells: E. coli BL21(DE3)
Experimental: The assembled samples of Cp149 were prepared as described in the Size Exclusion Chromatography section. Eight μL of each sample was added onto the 300 mesh Lacey Formvar carbon–copper grids (Ted Pella, Inc.) and allowed to sit for 1.5 min. The grid was then rinsed in 500 mL of deionized water for 10 s twice to rinse off the extra buffer on the grid. After drying, the sample was stained with 8 μL of 2% uranyl acetate for 1 min. After removal and drying of the uranyl acetate solution, the sample was imaged with a Hitachi HT7700 electron microscope at an accelerating voltage of 120 kV, at the IMat Materials Characterization Facility of Georgia Institute of Technology. The images underwent processing using ImageJ software. Initially, to minimize noise, a Gaussian blur filter was applied. These images were then converted into an 8 bit binary format for edge detection. ImageJ identified particles ranging in size from 800 to 2000 pixels. An example of a processed image can be seen in Figure S14. The circularity of each particle was calculated using the formula circularity = 4π × area × perimeter^–2. […] A total of four images, each containing a minimum of 100 capsids, were analyzed to determine the proportion of the abnormal capsids. The entire experiment was duplicated, and the outcomes from both sets were then averaged.

Cp149 capsid assembly [3] = target: T2, Cp149 capsid assembly; experiment: Size exclusion chromatography of Cp149 assembly; assay type: biochemical; conditions: 20 μM Cp149, 40 μM CAM, 500 mM NaCl, 1 h, 37 °C
Experimental: The Cp149 protein solution and the compound solution were initially mixed in concentrations of 40 μM Cp149 and 80 μM compound and incubated for 1 h at 37 °C to allow the compound to bind to the protein. The NaCl solution was then added to the incubated mixture to final concentrations of 20 μM Cp149, 40 μM compound, and 500 mM NaCl to initiate the assembly of Cp149. This mixture was incubated at 37 °C for 1 h. Finally, […] of the sample was analyzed using a hand-poured Superose 6 column, at the flow rate of 0.4 mL/min, and the isocratic mobile phase was 50 mM HEPES (pH 7.5).

[4] = test system: HBV DNA replication in HepAD38 cells; experiment: HBV DNA replication inhibition assay in HepAD38 cells (7 days, PCR of supernatant DNA); assay type: cell-based, hepatitis B virus; conditions: Hepatitis B virus; for inhibition at 200 µM: read-out: Anti-HBV activity in HepAD38 cells, % Inh. at 200 µM ± SD
How it was run: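 HepAD38 cells treated with compounds in dose–response […] for 7 days. On day 7, total DNA purified from supernatant and HBV DNA quantified by PCR; samples run in duplicate.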

[5] = MTT cytotoxicity, PBM cells; assay type: cell-based, human; conditions: human, peripheral blood mononuclear (PBM) cells
How it was run: (§1)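 Cell viability after compound exposure was measured by the colorimetric MTT tetrazolium-reduction assay using a commercial non-radioactive cell proliferation kit.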

[6] = MTT cytotoxicity, CEM cells; assay type: cell-based, human; conditions: human, T lymphoblast CEM-CCRF (CEM) cells
How it was run: as §1

[7] = MTT cytotoxicity, Vero cells; assay type: cell-based, African green monkey; conditions: African green monkey, Vero cells (kidney)
How it was run: as §1

[8] = MTT cytotoxicity, HepG2 cells; assay type: cell-based, human; conditions: human, HepG2 cells (liver carcinoma)
How it was run: as §1

[9] = MTT cytotoxicity, four cell lines taken together; assay type: cell-based; conditions: human, African green monkey; PBM, CEM, Vero, HepG2; read-out: CC50 in all cell lines
Experimental: (§2) Human peripheral blood mononuclear (PBM), T lymphoblast CEM-CCRF (herein referred to as CEM cells), African green monkey kidney (Vero), or human liver carcinoma (HepG2) cells were tested via MTT assay using the CellTiter 96 Non-Radioactive Cell Proliferation (Promega) kit as previously described.[63]

[10] = test system: human peripheral blood mononuclear (PBM) cells; experiment: MTT cytotoxicity, PBM cells; assay type: cell-based; conditions: 100 µM
How it was run: as §1

[11] = test system: African green monkey kidney (Vero) cells; experiment: MTT cytotoxicity, Vero cells; assay type: cell-based; conditions: Vero cells, 100 µM
How it was run: as §1

[12] = test system: human liver carcinoma (HepG2) cells; experiment: MTT cytotoxicity, HepG2 cells; assay type: cell-based; conditions: HepG2 cells, 100 µM
How it was run: as §1

Cp149 [13] = target: T1, Cp149; experiment: Tryptophan fluorescence titration; assay type: binding; conditions: for tryptophan fluorescence quenching: 20 μM Cp149, compound up to 100 μM
Experimental: Each of the compounds was titrated into 100 μL of the protein solution to final concentrations of 0, 5, 10, 20, 50, and 100 μM in a clear bottom 96-well plate. […] Tryptophan fluorescence levels were measured by exciting the samples at 285 nm and measuring the emission at 340 nm with the Varioskan Flash (Thermo Fisher) plate reader. […] Fluorescence quenching was calculated by taking the difference of net fluorescence levels of each concentration and of the 0 μM sample. All the samples were run in triplicate, and the results were averaged. The dissociation constants (KD) were fitted by the one-site-specific binding model of GraphPad.[45]

[14] = test system: PBM, CEM, Vero and HepG2 cells; experiment: MTT cytotoxicity, four cell lines taken together; assay type: cell-based
Experimental: as §2

[15] = MTS cytotoxicity (Table S4)
[16] = test system: T lymphoblast CEM-CCRF (CEM) cells; experiment: MTT cytotoxicity, CEM cells; assay type: cell-based, human; conditions: 100 µM
How it was run: as §1

[17] = HepAD38 cells, 10 μM, trial 1, read-out: % HBV DNA Inh. at 10 μM, trial 1
[18] = HePAD38, additional testing, Table S4
[19] = HePAD38, additional testing, Table S4, read-out: Anti-HBV activity in HepAD38 cells, EC50
[20] = HepAD38 cells, 10 μM, trial 2, read-out: % HBV DNA Inh. at 10 μM, trial 2
[21] = HepAD38 cells, 10 µM, trial 3, read-out: % HBV DNA Inh. at 10 µM, trial 3
[22] = HepAD38 cells, 10 µM, trial 4, read-out: % HBV DNA Inh. at 10 µM, trial 4
[23] = HepAD38 cells, 10 μM, read-out: % inhibition in at least one of the trials
[24] = HepAD38 cells, trial 1, read-out: EC50, trial 1
[25] = HepAD38 cells, trial 2, read-out: EC50, trial 2
[26] = HepAD38 cells, trial 3, read-out: EC50, trial 3
[27] = HepAD38 cells, trial 4, read-out: EC50, trial 4

T1 sequence (P03147 1-149): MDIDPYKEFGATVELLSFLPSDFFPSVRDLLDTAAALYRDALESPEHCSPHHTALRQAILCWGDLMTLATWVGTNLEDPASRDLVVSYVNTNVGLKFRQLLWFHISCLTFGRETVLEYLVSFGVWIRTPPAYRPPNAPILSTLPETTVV
T2 sequence (P03147 1-149): as above

C#CCNC(=O)C(=O)c1c(C)c(C(=O)Nc2ccc(F)c(F)c2)n(C)c1C [GLP-26]
Kd (Cp149 [1]): 0.7 µM

CCOC(=O)C1=C(CN2CCOCC2)NC(c2nccs2)=NC1c1ccc(F)cc1Br (stereo not drawn) [GLS4, reference compound]
effect on capsid morphology (TEM) (Cp149 capsid assembly [2]): strong misdirecting effects
effect on distribution of dimers and capsids / capsid size (SEC) (Cp149 capsid assembly [3]): strong enhancement of assembly

Cc1cc2nc(-c3ccccn3)c(-c3ccccn3)nc2cc1C [GT-5]
inhibition at 10 µM ([4]; HepAD38 cells, 10 µM, first round of selected compounds, read-out: HBV DNA inhibition (%) at 10 µM): 24.7%
inhibition at 10 µM [4, 17]: 24%
CC50 [5]: > 100 µM
CC50 [6]: > 100 µM
CC50 [7]: > 100 µM
CC50 [8]: > 100 µM
CC50 [9]: > 100 µM

CCn1ccnc1-c1c(-c2ccccc2)ncn1CCCc1cccnc1 [GT-39]
inhibition at 200 µM [4, 18]: 39.1 ± 1.5%
EC50 [4, 19]: > 200 µM
inhibition at 10 µM [4, 17]: 57%
inhibition at 10 µM [4, 20]: 50%
inhibition at 10 µM [4, 21]: < 1%
inhibition at 10 µM [4, 22]: 36%
inhibition at 10 µM [4, 23]: > 50%
EC50 [4, 24]: < 10 µM
EC50 [4, 25]: 10 µM
EC50 [4, 26]: > 10 µM
EC50 [4, 27]: > 100 µM
CC50 [5]: > 100 µM
percent cytotoxicity (cell growth inhibition) at 100 µM [10]: 22%
CC50 [6]: 16 µM
CC50 [7]: > 100 µM
% cytotoxicity (MTT) at 100 µM [11]: 47%
CC50 [8]: > 100 µM
percent cytotoxicity (MTT) at 100 µM, HepG2 [12]: 32%
tryptophan fluorescence quenching (Cp149 [13]): reproducible but modest fluorescence quenching
effect on capsid morphology (TEM) (Cp149 capsid assembly [2]): induced misdirected products
% abnormal capsids, Trial 1 (Cp149 capsid assembly [2]): 45%
% abnormal capsids, Trial 2 (Cp149 capsid assembly [2]): 36%
toxicity in at least one cell line tested [14]: 16 to 18 µM
IC50 (in vitro): > 200 µM
MTS cytotoxicity, % Inh. at 200 µM [15]: < 1%

O=C(NCc1ccc(-c2cccnc2)nc1)c1ccc2nccnc2c1 [GT-46]
inhibition at 200 µM [4, 18]: 25.6 ± 2.5%
EC50 [4, 19]: > 200 µM
inhibition at 10 µM [4, 17]: 49%
inhibition at 10 µM [4, 20]: 49%
inhibition at 10 µM [4, 21]: 2%
inhibition at 10 µM [4, 22]: 39%
inhibition at 10 µM [4, 23]: > 50%
EC50 [4, 24]: ≥ 10 µM
EC50 [4, 25]: ≥ 10 µM
EC50 [4, 26]: > 10 µM
EC50 [4, 27]: > 100 µM
CC50 [5]: > 100 µM
percent cytotoxicity (cell growth inhibition) at 100 µM [10]: 20%
CC50 [6]: 38 µM
CC50 [7]: 53 µM
CC50 [8]: 82 µM
tryptophan fluorescence quenching (Cp149 [13]): moderate fluorescence quenching
Kd (Cp149 [13]; KD, one site specific binding model, Table S7): 263 µM
Kd (Cp149 [13]; dissociation constant (KD), estimated, 20 μM Cp149, single-site fit): 263 µM
% abnormal capsids, Trial 2 (Cp149 capsid assembly [2]): 78%
% abnormal capsids, Average (Cp149 capsid assembly [2]): 74%
IC50 (in vitro): > 200 µM
MTS cytotoxicity, % Inh. at 200 µM [15]: < 1%

Cc1ccc2[nH]c(CCNc3nccc(-c4ccccn4)n3)nc2c1C [GT-47]
inhibition at 200 µM [4, 18]: < 1%
EC50 [4, 19]: > 200 µM
inhibition at 10 µM [4, 17]: 49%
inhibition at 10 µM [4, 20]: 49%
inhibition at 10 µM [4, 21]: 14%
inhibition at 10 µM [4, 22]: < 1%
inhibition at 10 µM [4, 23]: > 50%
EC50 [4, 24]: ≥ 10 µM
EC50 [4, 25]: ≥ 10 µM
EC50 [4, 26]: > 10 µM
EC50 [4, 27]: > 100 µM
CC50 [5]: > 100 µM
percent cytotoxicity (cell growth inhibition) at 100 µM [10]: 16%
CC50 [6]: > 100 µM
% cytotoxicity at 100 µM (MTT), CEM cells [16]: 48%
CC50 [7]: > 100 µM
% cytotoxicity (MTT) at 100 µM [11]: 31%
CC50 [8]: 18 µM
tryptophan fluorescence quenching (Cp149 [13]): reproducible but modest fluorescence quenching
effect on capsid morphology (TEM) (Cp149 capsid assembly [2]): induced misdirected products
% abnormal capsids, Trial 1 (Cp149 capsid assembly [2]): 28%
% abnormal capsids, Trial 2 (Cp149 capsid assembly [2]): 23%
% abnormal capsids, Average (Cp149 capsid assembly [2]): 26%
toxicity in at least one cell line tested [14]: 16 to 18 µM
IC50 (in vitro): > 200 µM
MTS cytotoxicity, % Inh. at 200 µM [15]: < 1%
